Holding throughout (format): ADME
Common to all, as to conditions: isolated protein

Data set [1] addresses T1, Albumin (Homo sapiens, UniProt P02768). Briefly: Binding affinity to defatted human serum albumin.
Data set [2] has as its target T1, Albumin. The data set can be described thus: Binding affinity to defatted human serum albumin relative to zidovudine.
For data set [3], the target named is T1, Albumin. The data set can be described thus: Binding affinity to defatted human serum albumin in presence of salicylic acid.
The target in data set [4] is T1, Albumin. Briefly: Binding affinity to fatty acid complexed human serum albumin.

T1 sequence (P02768 whole entry): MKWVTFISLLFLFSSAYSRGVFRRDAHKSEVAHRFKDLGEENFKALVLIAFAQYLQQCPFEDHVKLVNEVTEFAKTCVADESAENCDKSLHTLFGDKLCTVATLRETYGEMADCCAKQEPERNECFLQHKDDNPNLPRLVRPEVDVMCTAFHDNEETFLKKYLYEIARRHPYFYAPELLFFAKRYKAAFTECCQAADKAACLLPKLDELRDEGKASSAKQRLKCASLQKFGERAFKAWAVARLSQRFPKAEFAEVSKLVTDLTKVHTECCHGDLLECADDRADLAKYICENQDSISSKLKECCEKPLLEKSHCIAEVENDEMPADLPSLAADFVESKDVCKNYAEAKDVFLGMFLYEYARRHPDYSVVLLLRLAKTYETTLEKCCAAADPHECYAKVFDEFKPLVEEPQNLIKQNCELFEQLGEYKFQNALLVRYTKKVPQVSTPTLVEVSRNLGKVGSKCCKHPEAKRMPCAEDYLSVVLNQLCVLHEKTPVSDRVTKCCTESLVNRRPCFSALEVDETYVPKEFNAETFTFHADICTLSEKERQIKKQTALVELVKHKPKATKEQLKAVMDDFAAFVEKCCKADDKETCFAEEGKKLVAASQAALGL

Take `Cc1cn([C@H]2C[C@H](N=[N+]=[N-])[C@@H](COC(=O)C(=O)O)O2)c(=O)[nH]c1=O`: the Activity at Albumin [1] is reported as 47%; at Albumin [2] it was 5.93; on Albumin [3], 7%; on Albumin [4], 10.4%. Besides, the Ka at Albumin [1] is 6201.3 L/mol; at Albumin [3], 604.5 L/mol; at Albumin [4], 811.7 L/mol.
For `Cc1cn([C@H]2C[C@H](N=[N+]=[N-])[C@@H](COC(=O)C(=O)N3CCC[C@H]3C(=O)O)O2)c(=O)[nH]c1=O`, the Activity at Albumin [1] is given as 11.9%; at Albumin [2] it was 0.9; at Albumin [3], 9.4%; on Albumin [4], 16.1%. Further, the Ka at Albumin [1] amounted to 944.6 L/mol; at Albumin [3], 811.7 L/mol; on Albumin [4], 1341.9 L/mol.
`Cc1cn([C@H]2C[C@H](N=[N+]=[N-])[C@@H](COC(=O)c3ccncc3)O2)c(=O)[nH]c1=O`: the Activity at Albumin [1] was 19.8%; at Albumin [2], 1.64; on Albumin [4], 38.8%. Moreover, the Ka on Albumin [1] is given as 1709.8 L/mol; at Albumin [4], 3277.3 L/mol.
With `Cc1cn([C@H]2C[C@H](N=[N+]=[N-])[C@@H](COC(=O)C(=O)N[C@@H](Cc3ccc(O)cc3)C(=O)O)O2)c(=O)[nH]c1=O`, the Activity at Albumin [1] turned out to be 14.9%; at Albumin [2], 1.17; at Albumin [3], 9.4%; at Albumin [4] it was 10.4%. The results for the Ka at Albumin [1], at Albumin [3] and at Albumin [4] were 1224.4 L/mol, 811.7 L/mol and 890.9 L/mol, respectively.
On to `Cc1cn([C@H]2C[C@H](N=[N+]=[N-])[C@@H](COC(=O)C(=O)N[C@H](C(=O)O)C(C)C)O2)c(=O)[nH]c1=O`, for which the Activity is recorded as 17.4% at Albumin [1], 1.47 at Albumin [2], 15.2% on Albumin [3] and 11.9% at Albumin [4]. For the same molecule, the Ka at Albumin [1] was 1535 L/mol; on Albumin [3] it was 1312.6 L/mol; on Albumin [4], 944.6 L/mol.
Take `Cc1cn([C@H]2C[C@H](N=[N+]=[N-])[C@@H](COC(=O)C(=O)N[C@@H](Cc3c[nH]c4ccccc34)C(=O)O)O2)c(=O)[nH]c1=O`: the Activity is given as 20.5% at Albumin [1], 1.73 on Albumin [2], 17.6% on Albumin [3] and 23.7% at Albumin [4]. Besides, the values for the Ka at Albumin [1], at Albumin [3] and at Albumin [4] were 1803.2 L/mol, 1519.8 L/mol and 2172.1 L/mol, respectively.
Take `Cc1cn([C@H]2C[C@H](N=[N+]=[N-])[C@@H](COC(=O)C(=O)N[C@@H](Cc3ccccc3)C(=O)O)O2)c(=O)[nH]c1=O`: the Activity at Albumin [1] is 13.6%; at Albumin [2], 1.12; on Albumin [3] it was 8.3%; on Albumin [4] it was 5.5%. Besides, the Ka was found to be 1174.4 L/mol on Albumin [1], 716.7 L/mol on Albumin [3] and 436.6 L/mol at Albumin [4].
With `CC[C@H](C)[C@H](NC(=O)C(=O)OC[C@H]1O[C@@H](n2cc(C)c(=O)[nH]c2=O)C[C@@H]1N=[N+]=[N-])C(=O)O`, the Activity on Albumin [1] was 35.2%; at Albumin [2], 3.6; at Albumin [3], 4.6%; at Albumin [4], 7.6%. Further, the Ka at Albumin [1] was 3765.4 L/mol; at Albumin [3], 397.2 L/mol; on Albumin [4], 575.2 L/mol.
Consider `Cc1cn([C@H]2C[C@H](N=[N+]=[N-])[C@@H](COC(=O)C(=O)N[C@@H](CC(C)C)C(=O)O)O2)c(=O)[nH]c1=O`, for which the Activity at Albumin [1] amounted to 26.5%; at Albumin [2] it was 2.35; at Albumin [3], 5.2%; on Albumin [4], 8.9%. In addition, the results for the Ka on Albumin [1], at Albumin [3] and at Albumin [4] were 2457 L/mol, 449 L/mol and 683.2 L/mol, respectively.

These data come from ChEMBL document CHEMBL1143998, “Binding to human serum albumin of zidovudine (AZT) and novel AZT derivatives. Experimental and theoretical analyses” (Bioorg Med Chem, 2008).
